The subject of assay [1] is normal cell lines, MRC5, HEK-293 and L02 cells. Nature of the assay: MTT assay, panel of normal cell lines. It counts as cell-based. The following applies: Homo sapiens; three exponentially growing normal cell lines; read-out: IC50 proliferation, range over cell lines. The method, then: (§1) The MTT assay was performed as described. In brief, cells were seeded at 3000~5000 cells/well into 96-well plates (200 μL/well) and incubated overnight. We replaced the growth medium with fresh medium containing T521 at several concentrations (two-fold dilutions and the initial concentration is 50 μM, 10 reactions total). After further incubation for 48 hrs in the presence of T521, the medium was removed from all wells and the cells were incubated with 200 μL of fresh medium for additional 24 hrs. We then added 22 μL of MTT solution (Amresco; 5 mg/mL in PBS) to each well and incubated the plate for 4 hrs at 37°C. After removing the medium, we dissolved the purple MTT-formazan crystals by adding 150 μL of DMSO to each well and recorded absorbance at 560 nm by Envision Multilabel Reader (PerkinElmer). The inhibition curve was plotted to determine the IC50 of various cell lines using GraphPad Prism5.0.

Another assay has as its target T1, Plk1-Bub1 interaction (Homo sapiens, UniProt P53350).
T1 construct: endogenous in cells; host or cells: HeLa
Nature of the assay: Co-immunoprecipitation (IP) assay in HeLa cells. The conditions noted are these: HeLa cells released from double-thymidine arrest, 5, 10, 15 μM, 10 hrs. The class given is cell-based. The procedure: HeLa cells were synchronized in G1/S boundary by double-thymidine block as described, and then released into medium containing DMSO and T521 (5, 10, 15 μM) for 10 hrs. For Co-IP assay, rabbit polyclonal anti-Bub1 antibody (Cat# ab70372; Abcam) was coupled to Protein A-Agarose beads (Cat# sc-2001; Santa Cruz) at a concentration 100 μg/mL. Treated HeLa cells were lysed with RIPA buffer. After clearing by centrifugation, the lysate was incubated with the beads coupled to anti-Bub1 antibody for 2 hrs at 4°C. The beads were washed with the lysis buffer for three times. The proteins bound to the beads were dissolved in loading buffer and separated by 10% SDS-PAGE, and probed with the mouse monoclonal anti-hPlk1 antibody (Cat# P5998; Sigma; 1:3000) and rabbit polyclonal anti-Bub1 antibody (Cat# ab70372;Abcam; 1:2000), respectively.

Assay [2] concerns A549 lung-carcinoma cells. Nature of the assay: A549 xenograft in nude mice, tumor volume. The class given is in vivo. The conditions noted are these: intratumoral injection 50 and 100 mg/kg, Wednesdays and Fridays, 5 weeks, vs DMSO. The method, then: Female athymic nude mice were injected with 2.0 × 10^7 A549 lung-carcinoma cells subcutaneously. After 14~20 days, when the tumor volumes reached 100~150 mm^3, animals were divided into treatment (T521; 50, 100 mg/kg) and control (DMSO) groups with ten mice in each group. T521 (0.2 g/mL) dissolved in DMSO was administered alone and mice were treated with T521 by intratumoral injection at the different injection points according to indicated dose on Wednesdays and Fridays for 5 weeks. Tumor volumes were determined with a caliper on Monday and Thursday during drug administration cycle. Tumor volume (mm^3) was calculated using the following equation: V=L×S^2×π/6, where L is the length and S is width of the tumor. The body weight of these mice was determined as an indicator of tolerability on the same days. Student's t-tests were performed for statistical evaluation among treatment and control groups. All mice were properly treated in accordance with the guidelines of the local animal committee.

For assay [3], the system named is 12 human cancer cell lines. The assay is described as follows: MTT assay, panel of cancer cell lines. It counts as cell-based. The conditions noted are these: all tested 12 human cancer cell lines; read-out: IC50 proliferation, range over cell lines. The method, then: as §1
The target of the next assay is T2, Plk1 (Homo sapiens, UniProt P53350).
T2 construct: purchased Sino Biological Inc
The assay is described as follows: HPLC-Q-TOF mass spectrometry of intact protein after incubation. It counts as binding. The following applies: Plk1 10 μM, T521 500 μM, 50 mM Tris-HCl pH8.0, RT, 30 min. The procedure: (§2) The covalent binding mode was speculated from the interactions between Poloxin, TQ and Plk1 PBD [23]. […] To test this possibility, we incubated purified Plk1 (10 μM) with T521 (500 μM) in 50 mM Tris-HCl (pH8.0) at room temperature for 30 min. […] In contrast, no addition of T521 to Plk2 or Plk3 was detected after their incubation with T521 (Supplementary Figure S1C, S1D, S1E and S1F).
(§3) Supplementary Figure S1: Analysis of binding mode between T521 and Plk1-3 using HPLC-Q-TOF MS. Plk1-3 (10 μM) proteins were incubated with or without T521 (500 μM) in 50 mM Tris-HCl (pH8.0) at RT for 30 min. The desalted samples (5 μg) were eluted with an HPLC gradient program into a Q-TOF mass spectrometer (Agilent, USA). Mass spectra were obtained after deconvolution.
(§4) A, C, E. The analysis of Plk1-3 proteins after incubation in the absence of T521. B, D, F. The analysis of Plk1-3 proteins after incubation […]
(§5) (also on this page, place not known: www.impactjournals.com/oncotarget/ Oncotarget, Materials 2016 Supplementary) […]

A further assay has as its target T3, Plk2 (Homo sapiens, UniProt Q9NYY3).
T3 construct: purchased Sino Biological Inc
The description is as above. It counts as binding. The conditions noted are these: Plk2 10 μM, T521 500 μM, RT, 30 min. The procedure:
as §2, §3, §4, §5

A further assay addresses T4, Plk3 (Homo sapiens, UniProt Q9H4B4).
T4 construct: purchased Sino Biological Inc
The assay is described as above. It counts as binding. The following applies: Plk3 10 μM, T521 500 μM, RT, 30 min. The method, then:
as §2, §3, §4, §5

SMILES strings stand for the structures.

T3 sequence (Q9NYY3 whole entry): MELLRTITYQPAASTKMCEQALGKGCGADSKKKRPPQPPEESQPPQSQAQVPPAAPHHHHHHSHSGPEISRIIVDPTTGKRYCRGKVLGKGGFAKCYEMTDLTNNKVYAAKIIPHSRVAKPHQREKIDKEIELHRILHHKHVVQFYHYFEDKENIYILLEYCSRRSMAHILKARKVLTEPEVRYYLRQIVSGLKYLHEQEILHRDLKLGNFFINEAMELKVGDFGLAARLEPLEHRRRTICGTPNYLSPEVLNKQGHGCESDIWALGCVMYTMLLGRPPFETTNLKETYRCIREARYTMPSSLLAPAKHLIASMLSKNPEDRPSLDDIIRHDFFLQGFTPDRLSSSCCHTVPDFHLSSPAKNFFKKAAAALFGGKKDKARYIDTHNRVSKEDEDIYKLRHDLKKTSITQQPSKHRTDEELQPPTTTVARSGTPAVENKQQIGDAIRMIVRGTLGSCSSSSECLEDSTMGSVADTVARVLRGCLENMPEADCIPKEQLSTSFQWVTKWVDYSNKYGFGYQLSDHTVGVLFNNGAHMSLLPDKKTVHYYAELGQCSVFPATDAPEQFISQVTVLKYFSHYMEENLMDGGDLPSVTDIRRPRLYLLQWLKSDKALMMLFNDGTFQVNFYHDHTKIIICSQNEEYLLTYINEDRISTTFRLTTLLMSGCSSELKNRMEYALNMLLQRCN
T1 sequence (P53350 2-603 limits assumed): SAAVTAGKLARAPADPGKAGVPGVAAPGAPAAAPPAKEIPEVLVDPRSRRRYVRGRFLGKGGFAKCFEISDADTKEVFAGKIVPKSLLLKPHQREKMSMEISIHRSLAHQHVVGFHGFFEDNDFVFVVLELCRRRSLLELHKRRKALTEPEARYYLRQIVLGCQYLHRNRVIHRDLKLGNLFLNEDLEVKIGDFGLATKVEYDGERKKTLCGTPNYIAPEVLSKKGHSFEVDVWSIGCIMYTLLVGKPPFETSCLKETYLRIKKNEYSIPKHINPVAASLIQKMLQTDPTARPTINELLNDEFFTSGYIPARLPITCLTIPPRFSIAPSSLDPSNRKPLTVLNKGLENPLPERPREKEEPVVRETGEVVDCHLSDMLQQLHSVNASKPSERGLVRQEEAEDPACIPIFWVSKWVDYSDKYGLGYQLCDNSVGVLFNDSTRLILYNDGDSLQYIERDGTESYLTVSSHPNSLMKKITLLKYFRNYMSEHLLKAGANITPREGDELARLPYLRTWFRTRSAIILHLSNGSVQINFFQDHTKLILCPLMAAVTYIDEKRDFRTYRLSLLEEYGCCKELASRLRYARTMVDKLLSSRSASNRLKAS
T4 sequence (Q9H4B4 whole entry): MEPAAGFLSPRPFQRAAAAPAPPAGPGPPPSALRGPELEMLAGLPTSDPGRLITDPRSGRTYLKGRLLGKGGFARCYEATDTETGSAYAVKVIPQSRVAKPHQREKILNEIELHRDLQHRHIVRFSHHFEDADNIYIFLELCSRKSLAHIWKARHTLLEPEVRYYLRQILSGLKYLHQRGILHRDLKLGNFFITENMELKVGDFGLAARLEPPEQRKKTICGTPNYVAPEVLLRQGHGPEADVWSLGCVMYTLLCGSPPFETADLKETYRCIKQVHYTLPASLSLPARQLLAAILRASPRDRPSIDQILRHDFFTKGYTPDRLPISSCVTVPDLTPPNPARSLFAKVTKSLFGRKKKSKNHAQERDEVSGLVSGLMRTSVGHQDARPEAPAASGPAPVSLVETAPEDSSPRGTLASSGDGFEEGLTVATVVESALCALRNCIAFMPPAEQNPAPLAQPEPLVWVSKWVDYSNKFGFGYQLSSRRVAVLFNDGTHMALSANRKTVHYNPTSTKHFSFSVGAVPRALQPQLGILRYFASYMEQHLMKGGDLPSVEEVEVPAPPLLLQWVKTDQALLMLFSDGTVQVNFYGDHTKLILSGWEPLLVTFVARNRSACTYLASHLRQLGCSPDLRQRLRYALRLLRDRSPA
T2 sequence (P53350 whole entry): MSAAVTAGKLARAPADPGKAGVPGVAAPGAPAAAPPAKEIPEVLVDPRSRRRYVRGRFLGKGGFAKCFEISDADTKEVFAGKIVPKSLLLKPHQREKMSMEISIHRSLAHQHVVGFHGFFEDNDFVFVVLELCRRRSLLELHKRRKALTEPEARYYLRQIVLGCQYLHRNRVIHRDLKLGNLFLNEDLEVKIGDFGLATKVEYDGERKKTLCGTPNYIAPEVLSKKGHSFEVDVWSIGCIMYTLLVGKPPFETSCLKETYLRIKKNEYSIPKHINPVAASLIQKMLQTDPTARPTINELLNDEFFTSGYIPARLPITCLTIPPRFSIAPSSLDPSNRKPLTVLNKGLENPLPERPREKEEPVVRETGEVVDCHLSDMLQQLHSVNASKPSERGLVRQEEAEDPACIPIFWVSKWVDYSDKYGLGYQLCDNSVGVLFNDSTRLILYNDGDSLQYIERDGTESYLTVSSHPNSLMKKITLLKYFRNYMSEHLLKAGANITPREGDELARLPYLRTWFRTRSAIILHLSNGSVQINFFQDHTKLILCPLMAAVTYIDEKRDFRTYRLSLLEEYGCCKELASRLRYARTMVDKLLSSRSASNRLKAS

`CCS(=O)(=O)c1oc(-c2ccc(F)cc2)nc1S(=O)(=O)c1ccccc1` [T521, 5-(ethylsulfonyl)-2-(4-fluorophenyl)-4-(phenylsulfonyl) oxazole]: the IC50 lay within 3 to 10 µM in assay [1] and 1 to 5 µM in assay [3]. For the same compound, the “Plk1 protein level in Bub1 immunoprecipitates” value on Plk1-Bub1 interaction was “clear decrease”. The tumor volume entry in assay [2] is reported as “obvious reduction of tumor volume”. Also, the “increase of intact mass of protein (covalent addition)” value on Plk1 came out at 907.05 Da. The “covalent addition to protein” value at Plk2 and on Plk3 was “no addition” throughout.

(Values after paper PMC5352051, “Identification of a novel Polo-like kinase 1 inhibitor that specifically blocks the functions of Polo-Box domain” (Oncotarget, 2016).)
